This assay has as its target apamine binding sites (apamine-sensitive potassium channels), bovine cerebral membrane. As to the kind of experiment: Binding of 125I-apamine to bovine cerebral membrane. The conditions noted are these: 30 pM 125I-apamine, bovine (calf) hippocampus membranes, 200 μg membrane protein, 60 min on ice. As for the experimental part:
The compounds according to the invention are ligands for apamine-sensitive potassium channels. This can be shown by studying the affinity for apamine binding sites, e.g. in bovine cerebral membranes.
1) Binding of^125 I-apamine to bovine cerebral membrane
Calf brains were obtained from the local abattoir. The hippocampus was prepared on ice and a membrane suspension was made up by homogenization twice in buffer (100 mM Tris-HCl, KCl 5 mM, pH 7.4) and centrifugation at 43,000×g. In a total volume of 500 μl, the incubation mixture contained 200 μg of membrane protein, 30 pM ^125 I-apamine and test substances in the concentration range 1×10^-9 to 1×10^-4 M. The non-specific binding of ^125 I-apamine was determined in the presence of 1×10^-7 M unlabelled apamine.
After preincubation for 30 rain at room temperature (test substances and membrane homogenate), the samples were placed on ice for 10 min before the radioligand was added. The main incubation time was 60 min on ice. When the reaction time had elapsed, an excess of ice-cooled incubation buffer was added to each sample and the mixture was filtered with suction through cellulose acetate/nitrate membrane filters. The amount of bound ^125 I-apamine was measured with a gamma counter.

Our source for the Ki values is patent publication US5739127A, “2,4'-bridged bis-2,4-diaminoquinazolines” (Bayer Aktiengesellschaft, priority 1996, dated 1998).

What is called Ki is a measure of affinity in units of concentration, obtained from inhibition or displacement. Higher therefore signals lower affinity.

The compound `NC(=O)C1CCCN(c2nc(N3CCC(CNc4nc(N5CCCC5)nc5ccccc45)CC3)nc3ccccc23)C1` (stereo not shown) [Example 5] registered a Ki of 150 nM.
